Data from ChEMBL document CHEMBL1201862, “PubChem BioAssay data set” (2004).
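All cell lines were grown in 96-well plates and treated with compound for 48 hours. Here, GI50 denotes the concentration required for 50% inhibition of growth.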 The source made the active and inactive calls. No stated cut-off is given here; in the data, active = GI50 up to about 1.1 µM and inactive = higher.

Experiments:
Test in all cases: NCI-60 cell line screen, 48 h
[1] = test system: UACC-62
[2] = test system: KM12
[3] = test system: OVCAR-3
[4] = test system: KM-20L2
[5] = test system: EKVX
[6] = test system: HOP-92
[7] = test system: NCI-H522
[8] = test system: RPMI-8226
[9] = test system: SF-268
[10] = test system: SK-MEL-5
[11] = test system: A498
[12] = test system: ACHN
[13] = test system: OVCAR-5
[14] = test system: RXF 393
[15] = test system: UO-31
[16] = test system: HOP-62
[17] = test system: SR
[18] = test system: T47D
[19] = test system: PC-3
[20] = test system: Hs-578T

Measured: GI50

COC(=O)c1c(-c2ccccc2)sc(-c2cccc3ccccc23)c1C(=O)OC
inactive: [1] > 100 µM | [2] > 100 µM | [3] 81.1 µM | [4] > 100 µM | [5] > 100 µM | [6] > 100 µM | [7] > 100 µM | [8] > 100 µM | [9] > 100 µM | [10] > 100 µM | [11] > 100 µM | [12] > 100 µM | [13] > 100 µM | [14] > 100 µM | [15] 58.2 µM

Cc1c(/C=N/NC(=O)c2cc(Br)cc(Br)c2O)c(=O)n(-c2ccccc2)n1C
inactive: [1] 19.6 µM | [2] 33.8 µM | [3] 29.9 µM | [4] 58.3 µM | [5] > 100 µM | [6] 30.1 µM | [7] 33 µM | [8] 85.7 µM | [9] 83.8 µM | [10] 51.6 µM | [11] > 100 µM | [12] 51.1 µM | [13] > 100 µM | [15] 70.5 µM | [16] 52.7 µM

COC1=CC(=O)C2C(C1=O)[C@@H]1c3ccccc3OC(C)(C)[C@H]21 (stereo not given in full)
inactive: [1] > 10 µM | [2] 68.1 µM | [3] 15.1 µM | [4] 27.1 µM | [5] 31.9 µM | [6] 20.5 µM | [7] 13.9 µM | [8] 26.6 µM | [9] 29.6 µM | [10] 27.4 µM | [11] > 100 µM | [12] 14.2 µM | [13] 40.8 µM | [14] 14.1 µM | [15] 15.2 µM | [16] > 100 µM

NC(=O)C(=Cc1ccc(CP(=O)(O)O)cc1)C(N)=O
inactive: [1] > 100 µM | [2] > 100 µM | [3] > 100 µM | [4] > 100 µM | [5] > 100 µM | [6] > 100 µM | [7] > 100 µM | [8] > 100 µM | [10] > 100 µM | [11] > 100 µM | [12] > 100 µM | [13] > 100 µM | [14] > 100 µM | [15] > 100 µM | [16] > 100 µM

Cc1cc2c(=O)c3ccc(Cl)cc3[nH]c2c(C(N)=O)c1C
inactive: [1] > 100 µM | [2] > 100 µM | [3] > 100 µM | [4] > 100 µM | [5] > 100 µM | [6] > 100 µM | [7] > 100 µM | [8] > 100 µM | [9] > 100 µM | [10] > 100 µM | [11] > 100 µM | [12] > 100 µM | [13] > 100 µM | [15] > 100 µM | [16] > 100 µM

CCCN1CN(C(C(=O)N[C@@H]2C(=O)N3C2SC(C)(C)C3C(=O)O)c2ccccc2)CSC1=S (stereo not given in full)
inactive: [1] > 100 µM | [2] > 100 µM | [3] 32.2 µM | [4] > 100 µM | [5] > 100 µM | [6] > 100 µM | [7] 23.1 µM | [8] 53.6 µM | [9] > 100 µM | [10] > 100 µM | [11] > 100 µM | [12] > 100 µM | [13] > 100 µM | [15] > 100 µM | [16] > 100 µM

CCOc1ccc(/C=C/C(=O)c2sc(NNC(C)=O)nc2C)cc1
inactive: [1] > 100 µM | [2] > 100 µM | [3] > 100 µM | [4] > 100 µM | [5] 85.1 µM | [6] > 100 µM | [7] > 100 µM | [8] > 100 µM | [9] > 100 µM | [10] > 100 µM | [11] > 100 µM | [12] > 100 µM | [13] > 100 µM | [14] > 100 µM | [15] > 100 µM | [16] > 100 µM

CCOC(=O)N[C@@H]1C(CC(=O)OC)O[C@H]2OC(C)(C)O[C@H]21 (stereo not given in full)
inactive: [1] > 100 µM | [2] > 100 µM | [3] > 100 µM | [4] > 100 µM | [6] > 100 µM | [8] > 100 µM | [9] > 100 µM | [10] > 100 µM | [11] > 100 µM | [12] > 100 µM | [13] > 100 µM | [14] > 100 µM | [15] > 100 µM | [16] > 100 µM

C=C1C(=O)O[C@@H]2C[C@@]3(C)CCC[C@H](C)C3=C[C@H]12 [HELENINE]
inactive: [1] 6.46 µM | [2] 12 µM | [3] 6.89 µM | [5] 15 µM | [6] 2.43 µM | [7] 3.18 µM | [17] 1.19 µM | [18] 2.64 µM | [8] 1.76 µM | [9] 12.6 µM | [10] 4.8 µM | [11] 12.4 µM | [19] 11.6 µM | [12] 10 µM | [13] 17.5 µM | [14] 6.12 µM | [15] 4.95 µM | [20] 4.99 µM | [16] 12.3 µM
